Laboratory results published in EP4628074A1, “N-PALMITOYLETHANOLAMIDE FOR USE IN COMBINATION WITH A NON-STEROIDAL ANTI-INFLAMMATORY DRUG IN THE TREATMENT OF INFLAMMATORY PAIN” (priority 2024, dated 2025).
Where “and” joins values, the source holds several entries; their conditions need not be identical. Equal entries are not always repeated. Entries after “also recorded” stand apart in the source; their conditions may differ.

How the values were obtained:
[1] = in vivo; cited from earlier work
[2] = tested on: collagen-induced arthritis; assay: Paw volume by plethysmometry in collagen-induced arthritis (CIA) (Experiment 2); assay type: in vivo, Female Lewis rats; conditions: for Pr > F: 2x2 factorial analysis on swelling of the paw, PEA 30 mg/kg, ibuprofen 5 mg/kg, PEA*IBU = interaction (synergy)
Description: (§1) Rheumatoid arthritis is a disease characterized by inflammatory pain, in which the involved joints present swelling, stiffness and often erosive processes. Female Lewis rats were maintained on a 12/12 hour light/dark cycle, at constant temperature and humidity and acclimated for 1 week, with free access to water and standard diet. […] Arthritis score, change in paw volume (mL), and change in body weight (g) were measured as indicators of inflammatory pain. Arthritis severity was measured every other day starting on day 25, using the following score: 0 = no sign of arthritis; 1 = swelling and/or redness of the paw or toe; 2 = two joints involved; 3 = more than two joints involved; and 4 = severe arthritis of the entire paw and toes. The arthritis index for each subject was calculated by adding the four scores of the individual paws. The change in paw volume compared to day 21 was assessed every two days by plethysmometry (Ugo Basile) starting from day 25. The change in weight was measured for each animal on day 21 and then every two days starting from day 25.
The chosen inflammatory pain indicators were analyzed via Generalized Linear Model (GLM) followed by post-hoc analysis based on Tukey-Kramer correction for multiple comparisons. […] All analyzes were performed using SAS software, version 9.4 (SAS Institute, Cary, NC, USA).

[3] = tested on: inflammatory pain induced by sub-plantar injection of carrageenan; assay: Von Frey filaments, inflammatory pain induced by sub-plantar injection of carrageenan (Experiment 3); assay type: in vivo, adult male Sprague-Dawley rats
Description: The experimental inflammatory pain model was induced through a sub-plantar injection of carrageenan (CAR) saline solution (0.1 mL of a 1% suspension of CAR in 0.85% saline). […] The PEA used in this experiment was in unprocessed (native) form. Von Frey filaments were used to evaluate pain, recording for each animal the mechanical tolerance threshold, i.e. the pressure (expressed in grams) endured before retracting the paw. The measurement took place using an analgesimeter (Ugo Basile, Comerio, Varese, Italy) and was conducted before the sub-plantar injection of the CAR and at the time of maximum damage (5 hours later).
(§2) The effect on pain was analyzed using Generalized Linear Model (GLM) followed by post-hoc analysis based on Tukey-Kramer correction for multiple comparisons. […] All analyses were performed using SAS software, version 9.4 (SAS Institute, Cary, NC, USA). P value < 0.05 was considered significant.

[4] = tested on: collagen-induced arthritis; assay: Body weight change in collagen-induced arthritis (CIA) (Experiment 2); assay type: in vivo, Female Lewis rats; conditions: PEA 30 mg/kg; for Pr > F: 2x2 factorial analysis on weight change, ibuprofen 5 mg/kg, PEA*IBU = interaction (synergy)
Description: as §1
as §2, with “The chosen inflammatory” for “The effect on”, “pain indicators were” for “pain was”, “analyzed via” for “analyzed using”, “All analyzes” for “All analyses”

[5] = tested on: CFA-induced inflammatory pain; assay: Paw pressure test, CFA-induced inflammatory pain, single (acute) oral administration (Experiment 1); assay type: in vivo, male Sprague-Dawley rats; conditions: for Pr > F: PEA 10 mg/kg
Source text: In the in vivo experimentation, male Sprague-Dawley rats (200-250 g) (Envigo, Varese, Italy) fed "ad libitum" and housed in cages with a controlled sleep/wake cycle were used.
Before the start of the study, the animals were subjected to a 1-week acclimatization period at the Center for Laboratory Animal Sheltering (Ce.S.A.L.) of the University of Florence, following all experimental procedures and protocols compliant with the principles of care and welfare of laboratory animals approved by the Italian Ministry of Health (Italian Legislative Decree 2014/26), European directives (EU Directive 2010/63) and the ARRIVE guidelines.
In order to cause inflammatory pain, Complete Freund's Adjuvant (CFA) was injected at a rate of 50 µL into the joint cavity of the left leg between the tibiofibular and tarsal bones after light anesthesia with 2% isoflurane. The control group was subjected to the same procedure, injecting an equal volume of saline solution (vehicle).
The animals were divided into 9 groups of 6 rats each and treated acutely per os with a single administration, starting from the seventh day after the induction of joint damage. • Group 1: healthy rats subjected to intra-articular injection of saline (vehicle group) • Group 2: rats injected with CFA and treated with 1% CMC, corresponding to the vehicle in which the compounds for the treatments of the following groups were suspended (CFA group); • Group 3: rats injected with CFA and treated with micronized PEA 10 mg/kg; • Group 4: rats injected with CFA and treated with diclofenac 30 mg/kg; • Group 5: rats injected with CFA and treated with diclofenac 3 mg/kg; • Group 6: rats injected with CFA and treated with diclofenac 3 mg/kg + micronized PEA 10 mg/kg; • Group 7: rats injected with CFA and treated with meloxicam 30 mg/kg; • Group 8: rats injected with CFA and treated with meloxicam 3 mg/kg; • Group 9: rats injected with CFA and treated with meloxicam 3 mg/kg + micronized PEA 10 mg/kg.
All animals were subjected to the paw pressure test at the level of the ipsilateral paw, performed before (T0) or after 15, 30, 45 and 60 minutes after the single administration of the treatment (T15, T30, T45 and T60, respectively). In particular, the nociceptive threshold was calculated with an analgesiometer (Ugo Basile, Varese, Italy) by applying an increasing pressure at constant speed (32 g/s) by means of a non-pointed conical support on the dorsal surface of the ipsilateral paw with respect to the injection of CFA (or vehicle). The nociceptive threshold was expressed as the force (in decagrams, dag) to which the animal reacts by retracting the paw or vocalizing (Leighton GE et al. kappa-Opioid agonists produce antinociception after i.v. and i.c.v. but not intrathecal administration in the rat. Br J Pharmacol. 1988; 93: 553-60).
The values emerged from the paw pressure test in the different treatment groups were compared with each other using the Generalized Linear Mixed Model (GLMM) followed by post-hoc analysis based on Tukey-Kramer correction for multiple comparisons, referring to the single treatment group, considering all the times.
The AUC was analyzed by a two-way factor analysis of variance (2x2 ANOVA), after plotting the mean values, according to the procedure shown by Slinker BK. The statistics of synergism. J Mol Cell Cardiol. 1998 Apr;30(4):723-31. The values were expressed as mean ± standard error mean (SEM). All the statistical analyses were carried out using the software SAS, version 9.4 (SAS Institute, Cary, NC, USA). The value p < 0.05 was considered significant.

In the case of CCCCCCCCCCCCCCCC(=O)NCCO [PEA, N-palmitoylethanolamide], the “dose free of acute and sub-chronic toxicity” value [1] is given as at least 1000 mg/kg daily, the “Pr > F” value ([2]; 6° giorno di trattamento) is given as 0,0002 and the “Pr > F” value ([2]; 8° giorno di trattamento) is given as <0,0001. The “Pr > F” value ([2]; 10° giorno di trattamento) was <0,0001, the “effect on paw volume increase” value ([2]; single administration of PEA 30 mg/kg or ibuprofen 5 mg/kg (not combined)) was “had no effect” and the “Pr > F” value ([3]; 2x2 factorial analysis on tolerance threshold (Von Frey), native PEA 100 mg/kg, ibuprofen 5 mg/kg, PEA*Ibu = interaction (synergy)) was 0,0046. For the same molecule, the “mechanical tolerance threshold compared to the vehicle-treated group” value ([3]; single oral administration 30 minutes before carrageenan, measured 5 hours later, unprocessed (native) PEA 100 mg/kg and/or ibuprofen 5 mg/kg) was “inactive dose”, the “Pr > F” value ([4]; 6° giorno di trattamento (G31)) was <0,0001 and the “Pr > F” value ([4]; 8° giorno di trattamento (G33)) was <0,0001. For the same molecule, the “Pr > F” value ([4]; 10° giorno di trattamento (G35)) was <0,0001, the “effect on weight reduction induced by arthritis pain” value ([4]; from the 4th day of treatment (day 29) for the entire observation period, low-dose ibuprofen 5 mg/kg, high-dose IBU 30 mg/kg) was “neither PEA nor low-dose ibuprofen exerted any effect” and the “Pr > F” value ([5]; ANOVA 2x2 on AUC of paw pressure test (Figure 2), diclofenac 3 mg/kg, line PEA*Dicl 3 = interaction (synergy)) was 0.0002. The “Pr > F” value ([5]; ANOVA 2x2 on AUC of paw pressure test (Figure 4), meloxicam 3 mg/kg, line PEA*Mel 3 = interaction (synergy)) was 0.0003, the “p with respect to the CFA group (pain tolerance threshold)” value ([5]; CFA-injected rats, single per os administration on day 7, micronized PEA 10 mg/kg and/or NSAID 3 mg/kg, GLMM with Tukey-Kramer) was 0.9674 and 0.9588 and the “pain tolerance threshold with respect to the CFA group” value ([5]; CFA-injected rats, single per os administration on day 7 after CFA, micronized PEA 10 mg/kg and/or NSAID 3 mg/kg, T0-T60 min, all times considered) was “no significant difference; also recorded: no significant effect”.
